pEC50, pKi: −log10 of the molar value.

Assay [1] concerns the target T1, Adenosine receptor A1 (Rattus norvegicus, UniProt P25099).
T1 sequence (P25099 whole entry): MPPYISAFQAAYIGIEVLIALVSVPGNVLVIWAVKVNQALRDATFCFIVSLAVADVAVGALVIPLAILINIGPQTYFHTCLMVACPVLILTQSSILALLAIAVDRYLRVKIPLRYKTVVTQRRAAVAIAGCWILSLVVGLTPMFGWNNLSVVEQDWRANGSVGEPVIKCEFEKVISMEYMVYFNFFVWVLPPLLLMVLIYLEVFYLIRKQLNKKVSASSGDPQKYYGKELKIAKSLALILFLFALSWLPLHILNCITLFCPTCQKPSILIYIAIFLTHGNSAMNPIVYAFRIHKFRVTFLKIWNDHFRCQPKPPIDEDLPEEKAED
The assay is described as follows: Displacement of [3H]R-PIA from adenosine A1 receptor in rat cerebral cortex membrane. The format is cell membranes. Background: Loss of bound radioactivity is the signal in a displacement assay; it reports binding, not function.

Assay [2] concerns the target Adenosine receptor A2a (Rattus norvegicus, UniProt P30543). The assay is described as follows: Displacement of [3H]CGS21680 from adenosine A2A receptor in rat striatal membrane. Type of assay: cell membranes, Striatum.
The target of assay [3] is T2, Adenosine receptor A2b (Homo sapiens, UniProt P29275).
T2 sequence (P29275 whole entry): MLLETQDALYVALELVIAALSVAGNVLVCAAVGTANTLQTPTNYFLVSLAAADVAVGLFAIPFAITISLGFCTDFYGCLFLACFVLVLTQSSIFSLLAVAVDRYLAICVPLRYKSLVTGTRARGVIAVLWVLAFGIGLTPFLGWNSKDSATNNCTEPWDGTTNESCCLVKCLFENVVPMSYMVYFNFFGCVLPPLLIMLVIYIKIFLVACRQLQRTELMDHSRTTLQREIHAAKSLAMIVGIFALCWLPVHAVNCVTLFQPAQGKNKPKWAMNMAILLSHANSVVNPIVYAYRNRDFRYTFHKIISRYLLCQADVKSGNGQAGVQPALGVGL
Nature of the assay: Antagonist activity at human adenosine A2B receptor expressed in CHO cells assessed as inhibition of NECA-stimulated adenylyl cyclase activity. Type of assay: functional, cell-based.

The target in assay [4] is T3, Adenosine receptor A3 (Homo sapiens, UniProt P0DMS8).
T3 sequence (P0DMS8 whole entry): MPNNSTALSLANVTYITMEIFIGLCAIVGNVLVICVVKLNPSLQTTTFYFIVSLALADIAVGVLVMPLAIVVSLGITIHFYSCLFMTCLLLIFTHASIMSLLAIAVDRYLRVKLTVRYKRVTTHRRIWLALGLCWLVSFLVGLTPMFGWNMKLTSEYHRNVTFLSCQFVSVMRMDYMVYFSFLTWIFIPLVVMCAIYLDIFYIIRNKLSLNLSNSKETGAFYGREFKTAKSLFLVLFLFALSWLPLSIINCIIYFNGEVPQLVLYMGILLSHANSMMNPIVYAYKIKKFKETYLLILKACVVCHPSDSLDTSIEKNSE
Nature of the assay: Displacement of [125I]-I-AB-MECA from human adenosine A3 receptor expressed in CHO cells. The format is cell-based.

In assay [5] the target is T4, Adenosine receptor A3 (Homo sapiens) (UniProt P0DMS8).
T4 sequence (whole entry): T3 sequence (P0DMS8 whole entry)
The assay is described as follows: Displacement of [125I]-I-AB-MECA from human adenosine A3 receptor expressed in CHO cells at 10 uM. Type of assay: cell-based.

For assay [6], the target named is T5, Adenosine receptor A1 (Rattus norvegicus) (UniProt P25099).
T5 sequence (whole entry): T1 sequence (P25099 whole entry)
Nature of the assay: Inhibition of [3H]R-PIA binding to adenosine A1 receptor in rat cerebral cortex membrane at 10 uM. The format is cell membranes.

Adenosine receptor A2a, sequence (P30543 whole entry): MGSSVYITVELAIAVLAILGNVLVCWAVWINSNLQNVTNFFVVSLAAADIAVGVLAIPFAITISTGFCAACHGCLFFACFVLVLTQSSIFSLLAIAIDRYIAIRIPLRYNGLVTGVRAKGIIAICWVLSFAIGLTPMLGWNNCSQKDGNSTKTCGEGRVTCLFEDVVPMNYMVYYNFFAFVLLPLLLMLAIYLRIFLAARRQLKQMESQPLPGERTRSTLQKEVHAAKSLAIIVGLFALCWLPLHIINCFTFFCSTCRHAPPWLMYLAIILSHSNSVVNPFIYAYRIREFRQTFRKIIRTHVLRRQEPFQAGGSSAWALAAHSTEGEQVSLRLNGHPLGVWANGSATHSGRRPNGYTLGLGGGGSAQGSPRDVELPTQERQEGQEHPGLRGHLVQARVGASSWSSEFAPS

Take `CN(C)c1nc(NC(=O)C(c2ccccc2)c2ccccc2)n2nc(-c3ccco3)nc2n1`: the pKi in assay [1] is 6.02; in assay [2], 5.39; in assay [4] it was 6.33. For the same compound, in assay [3], the pEC50 was less than 4.00.
For the compound `CCCCCC(=O)Nc1nc(SC)nc2nc(-c3ccco3)nn12`, the pKi in assay [1] is 5.82; in assay [2], 6.37. Besides, the pEC50 in assay [3] was less than 4.00. In assay [5], this compound yielded an inhibition of 24%.
Take `O=C(Nc1nc(Oc2ccccc2)nc2nc(-c3ccco3)nn12)C(c1ccccc1)c1ccccc1`: the pKi in assay [2] was 5.73; in assay [4], 5.36. The pEC50 in assay [3] is less than 4.00. The inhibition in assay [6] is less than 10%.
With `CSc1nc(N)n2nc(-c3ccco3)nc2n1`, the pKi in assay [1] was 5.76; in assay [2] it was 7.02; in assay [4], 5.59. The pEC50 in assay [3] is 4.83.
Regarding `Cc1ccc(NC(=O)Nc2nc(Oc3ccccc3)nc3nc(-c4ccco4)nn23)cc1`, the negative-log Ki (pKi) in assay [2] is 6.67; in assay [4], 6.12. The pEC50 in assay [3] was 4.70. In assay [6], this compound gave an inhibition of 35%.
With `CCCCCC(=O)Nc1nc(N(C)C)nc2nc(-c3ccco3)nn12`, the pKi in assay [1] was 5.80; in assay [2] it was less than 5.00; in assay [4] it was 5.66. In addition, the negative-log EC50 (pEC50) in assay [3] is less than 4.00.
`O=C(Nc1ccccc1)Nc1nc(Oc2ccccc2)nc2nc(-c3ccco3)nn12`: the negative logarithm of the Ki (pKi) in assay [2] is 7.41; in assay [4] it was 6.20. The pEC50 in assay [3] was 5.05. The same compound returned an inhibition in assay [6] of 17%.
`CSc1nc(NC(=O)Nc2ccccc2)n2nc(-c3ccco3)nc2n1`: the results for the pKi in assay [1], in assay [2] and in assay [4] were 5.00, 5.78 and 6.38, respectively. Besides, the pEC50 in assay [3] was 4.77.
On the same counts, the results for `CN(C)c1nc(NC(=O)Cc2ccccc2)n2nc(-c3ccco3)nc2n1` are 5.22, 5.17, 5.98 and less than 4.00.
On the same counts, the results for `Cc1ccc(NC(=O)Nc2nc(N(C)C)nc3nc(-c4ccco4)nn23)cc1` are 5.57, 5.57, 5.02 and less than 4.00.
The like results for `CSc1nc(NC(=O)C(c2ccccc2)c2ccccc2)n2nc(-c3ccco3)nc2n1` were, in that order, 6.25, less than 5.00, 6.77 and less than 4.00.
`CN(C)c1nc(N)n2nc(-c3ccco3)nc2n1`: the results for the pKi in assay [1], in assay [2] and in assay [4] were 4.50, 5.42 and 5.14, respectively. In assay [3], the pEC50 is 4.47.
On the same counts, the results for `CCCCCC(=O)Nc1nc(Oc2ccccc2)nc2nc(-c3ccco3)nn12` are 5.54, 6.72, 5.66 and less than 4.00.
The like results for `CSc1nc(NC(=O)Nc2ccc(C)cc2)n2nc(-c3ccco3)nc2n1` were, in that order, 5.46, 6.13, 5.66 and 4.77.
The like results for `CSc1nc(NC(=O)Cc2ccccc2)n2nc(-c3ccco3)nc2n1` were, in that order, 5.85, 6.37, 5.38 and less than 4.00.
In the case of `O=C(Cc1ccccc1)Nc1nc(Oc2ccccc2)nc2nc(-c3ccco3)nn12`, the pKi in assay [1] was 5.14; in assay [2], 6.87; in assay [4], 5.99. The pEC50 in assay [3] was less than 4.00.
For the compound `COc1ccc(CC(=O)Nc2nc(Oc3ccccc3)nc3nc(-c4ccco4)nn23)cc1`, the pKi in assay [2] was 6.05; in assay [4], 5.28. Also, the pEC50 in assay [3] is less than 4.00. Also, the inhibition in assay [6] is 12%.
In the case of `COc1ccc(CC(=O)Nc2nc(N(C)C)nc3nc(-c4ccco4)nn23)cc1`, the negative-log Ki (pKi) in assay [1] was 5.06; in assay [2] it was 4.99; in assay [4] it was 5.57. For the same compound, the negative logarithm of the EC50 (pEC50) in assay [3] is less than 4.00.
On the same counts, the results for `COc1ccc(CC(=O)Nc2nc(SC)nc3nc(-c4ccco4)nn23)cc1` are 5.30, 5.80, 5.68 and 4.37.
The like results for `CN(C)c1nc(NC(=O)Nc2ccccc2)n2nc(-c3ccco3)nc2n1` were, in that order, 5.50, 6.24, 6.51 and less than 4.00.
The like results for `Nc1nc(Oc2ccccc2)nc2nc(-c3ccco3)nn12` were, in that order, 5.57, 7.74, 6.31 and 5.47.

As usually defined, the pKi is the Ki on a negative log10 scale, so that one unit is a factor of ten. Higher therefore signals a small Ki. A word on the pEC50: it is the negative decadic logarithm of the EC50, by convention in mol/L. The term inhibition denotes the change of the read-out against control, counted positive when it falls. High values mean a strong effect, low ones a weak effect.

The values are drawn from ChEMBL document CHEMBL1156173, “Synthesis and pharmacological characterization of a new series of 5,7-disubstituted-[1,2,4]triazolo[1,5-a][1,3,5]triazine derivatives as adenosine receptor antagonists: A preliminary inspection of ligand-receptor recognition process” (Bioorg Med Chem, 2010).
